Measured values as given in patent US10085955B2, “Methods and compositions for treatment of demyelinating diseases” (Pathologica LLC, priority 2013, dated 2018).
Entries after “also recorded” stand apart in the source; their conditions may differ.

Tested on: CNS-infiltrating cells
Assay: Second MOG EAE protocol, flow cytometric analysis of CNS-infiltrating cells
Assay type: in vivo, C57BL/6 mice
Settings: second study
Experimental: A second EAE experiment was run substantially as disclosed above, except that fingolimod was dosed at 1 mpk QD, and the pertussis toxin was administered at 165 ng/dose for both injections.
In addition to clinical scoring, flow cytometric analysis was performed on CNS-infiltrating cells from 6 mice in each of the vehicle-, fingolimod- and MGBG-treated groups, as well as in all three mice from the mock-immunized (disease-free) group.
On Day 28, the brain and spinal cord tissue (from 6 of 12 mice from each of the MOG-immunized groups; and from all 3 mice from the mock-immunized group) in the second MOG EAE study were […] infiltrating cells were isolated by Percoll gradient. After isolating infiltrating cells from each mouse separately, cells were placed in culture with phorbol myristate acetate (PMA, 50 ng/mL), ionomycin (0.5 μg/mL) and brefeldin (1 μg/mL) and incubated for 4-5 hours. The cells were then washed and stained for flow cytometric analysis, as specified below. The following analyses were performed (Becton Dickinson FACScan):
Anti-CD4-Cy-5/anti-IL-17A-PE/anti-IFNγ-FITC (Th1/Th17 cells)
Anti-CD4-Cy-5/anti-CD11c-PE/anti-CD45.2-FITC (infiltrating dendritic cells)
Anti-CD11b-Cy-5/anti-IL-12-PE/anti-CD45.2-FITC (M1 macrophages)
Anti-CD11b-Cy-5/anti-CD206-PE/anti-IL-10-FITC (M2 macrophages)
The number of cells positive for relevant stains and stain combinations was computed both as a percentage of the analyzed cells and as the average number of cells per mouse for each group.

[1] = Day 28, raw numbers of cells, fingolimod 1 mg/kg QD, MGBG 30 mg/kg BID
[2] = Day 28, fingolimod 1 mg/kg QD, MGBG 30 mg/kg BID

SMILES: CC(/C=N/NC(=N)N)=N\NC(=N)N [MGBG, 1,1′ [methylethanediylidene]dinitrilodiguanidine]
- CD4+ IFNy+ cells [1]: 20.40 +/− 10^3
- CD4+ IL-17A+ cells [1]: 23.55 +/− 10^3
- CD4+ cells [1]: 152.11 +/− 10^3
- CD11b+ CD206+ cells [1]: 1.92 +/− 10^3
- CD11b+ IL10+ cells [1]: 3.37 +/− 10^3
- CD11b+ cells [1]: 137.88 +/− 10^3
- CD45.2 high CD4− CD11c+ cells [1]: 11.90 +/− 10^3
- CD45.2 high CD11b− IL12+ cells [1]: 0.21 +/− 10^3
- IL12+ cells [1]: 0.89 +/− 10^3
- # of IL12+ cells (10^3) [2]: 0.89 +/− 10^3
- % CD4+ IFNγ+ cells [2]: 15.85%
- % CD11c+ of CD45.2 high CD4− cells [2]: 7.21%
- % CD206+ of CD11b+ cells [2]: 1.39%
- % IL10+ of CD11b+ cells [2]: 2.37%
- % IL12+ of CD45.2 high CD11b− cells [2]: 0.06%
- % IL-17A+ cells of CD4+ cells [2]: 15.24%
- % of CD4+ cells [2]: 28.50%
- % of CD11b+ cells [2]: 27.86%
- CNS CD11c+ dendritic cells (FIG. 8 A): reduces; also recorded: significantly reduced relative and absolute number
- IL12+ dendritic cells / IL-12-producing cells (FIG. 8 B): reduces; also recorded: significantly reduced number
- Th1 (FIG. 9 A): reduces
- M1 macrophages (FIG. 9 B): reduces
